The values below come from patent publication US20100144652A1, “COMPOSITION COMPRISING A GLYCOLYTIC INHIBITOR AND A RING SYSTEM COMPRISING A SULPHAMATE GROUP FOR THE TREATMENT OF CANCER” (Sterix Limited, priority 2007, published 2010).

The test system of data set [1] is LNCaP cells. Briefly: Proliferation assay (Alamar blue, microtiter plate). Type of data set: cell-based. As to conditions: Homo sapiens; for inhibition at 8000 µM: 2DG alone 8 mM, read-out: inhibition of cell growth. On the procedure: (§1) MCF-7 and LNCaP cells were obtained from the American Tissue Culture Collection (ATCC). Cells were cultured in the following supplements, obtained from Sigma: RPMI 1640 with 10% foetal bovine serum, 1% L-glutamine, 1% MEM non-essential amino acids, 1% sodium bicarbonate solution, LNCaP cells also required 1% sodium pyruvate. Cells were maintained in an incubator at 37° C. under 5% CO2 and 95% air atmosphere.
(§2) MCF-7 and LNCaP cells were seeded at 3000 cells/well or 5000 cells/well respectively, in 96 well plates. Compounds were added 4 hours after seeding of cells. […]
(§3) An Innova co-48 CO2 humidified incubator (Newbrunswick Scientific, St. Albans, U.K.) was used to study the effects of 2DG and STX140 on cells under hypoxic conditions. Oxygen was maintained at 1%, CO2 5% and temperature at 37° C.
In general terms: Alamar Blue is a resazurin reagent that responds to reducing activity.

Data set [2] relates to MCF-7 cells. The description is as above. Type of data set: cell-based. To be noted: Homo sapiens; for inhibition at 0.5 µM / inhibition at 8000 µM: MCF7, 72 h; for inhibition at 8000 µM: MCF-7, 2DG alone 8 mM, 72 h, read-out: inhibition of cell growth. The method, then: as §1, §2, §3
The subject of data set [3] is LNCaP cells. Put plainly: Measurement of ATP (ATPlite assay). The format is cell-based. To be noted: 72 h, 2DG 8 mM; for ATP levels: normoxia or hypoxia, STX140 0.1 μM-1 μM, vs untreated normoxic controls. On the procedure: as §3
(§4) MCF-7 and LNCaP cells were seeded at 3000 cells/well or 5000 cells/well respectively, in 96 well plates. Compounds were added 4 hours following seeding of cells. The ATPlite assay procedure was carried out according to manufacturer's instructions (Perkin Elmer, Beaconsfield, U.K.) and ATP measured 72 hrs later using a FluoStar Optima Plate reader.
A general note: Cellular ATP, detected with luciferase, serves as a proxy for viable cell number.

The test system of data set [4] is MCF-7 cells. Briefly: Measurement of ATP (ATPlite assay). The format is cell-based. To be noted: for ATP levels: MCF-7, 72 h, normoxia or hypoxia, 2DG 8 mM, STX140 0.1 μM-1 μM, vs untreated normoxic controls. The method, then:
as §3, §4

Data set [5] relates to LNCaP cells. Briefly: Cell morphology (microscopy). Type of data set: cell-based. As to conditions: STX140 0.5 μM, 2DG 8 mM, 96 h, normoxia. The text has this: (§5) Cells were examined using a Zeiss inverted microscope fitted with a 20× and 40× Plan-Neofluor objective, and analysed through an Axiovision imaging system attached to the microscope.
Data set [6] deals with MCF-7 cells. Briefly: Cell morphology (microscopy). As to conditions: MCF-7, STX140 0.5 μM, 2DG 8 mM, 96 h, normoxia. The format is cell-based.
Description: as §5

The subject of another data set is MCF-7 tumours. Put plainly: In vivo tumour xenograft model, MCF-7 cell tumours. As to conditions: athymic nude mice, STX140 5 mg/kg p.o. daily, 2DG 2 g/kg i.p. daily, 28 days, compared to control. The method, then:
Intact, ovariectomized, athymic, female MF-1 nude mice (nu-/nu-) were purchased from Harlan (Bicester, Oxon, UK) at 5 weeks of age (˜20-25 g in weight). All experiments were carried out under conditions that complied with institutional guidelines. Animals were kept in a 12-hour light/12-hour dark cycle and given food and water ad libitum. Monolayers of MCF-7 cells were removed by trypsinization, and the resultant cell suspension was centrifuged for 5 min. at 1,000×g and then resuspended in ice-cold matrigel (BD Biosciences). Five million MCF-7 cells were injected s.c. into the right flank of the animals. The tumours were allowed to grow for 2 weeks, when the tumours reached 100-150 mm^3 in volume, mice were randomly divided into four treatment groups: 1) vehicle (10% tetrahydrofuran; 90% propylene glycol, […] oral)+saline i.p. 200 ml; 2) vehicle+2DG (2 g/kg) i.p. 200 ml; 3) STX140 (5 mg/kg) […] oral+saline i.p. 200 ml; 4) STX140 (5 mg/kg) […] oral+2DG (2 g/kg) i.p. 200 ml. All treatments were administered daily for 4 weeks, […]. Throughout the study, mice were weighed and tumour measurements were taken on a weekly basis. Tumour volumes were calculated using the formula: length×width^2/2. At the end of the study, tumours were collected for immunohistochemical analysis.

In the next data set the test system is von Willebrand's factor. Briefly: von Willebrand's factor immunohistochemistry of xenograft sections (vessel density). As to conditions: sections of MCF-7 xenografts, STX140 5 mg/kg p.o. daily, 2DG 2 g/kg i.p. daily. Type of data set: in vivo, mice.
For data set [7], the system named is MCF-7 cells. To be noted: MCF-7, previously calculated by Day and Newman; read-out: IC50, inhibition of proliferation; cited from earlier work.
The test system of data set [8] is LNCaP cells. To be noted: previously calculated by Day and Newman, read-out: IC50, inhibition of proliferation; cited from earlier work.
The subject of a further data set is breast cancer cells. To be noted: Raobaikady et al., 2003; cited from earlier work.
Another data set relates to HUVEC cells. As to conditions: Newman et al., 2004; cited from earlier work.
A further data set deals with vessel formation. As to conditions: novel co-culture model system, Newman et al., 2004; cited from earlier work.
A further data set concerns the target p-glycoprotein (Homo sapiens, UniProt P08183). As to conditions: Suzuki, 2003; cited from earlier work.
For data set [9] the following is noted: cited from earlier work.
The conditions of data set [10]: cited from earlier work. This is another data set of the same source.
Another data set addresses T1, steroid sulphatase (Homo sapiens, UniProt P08842).
T1 sequence (P08842 22-583): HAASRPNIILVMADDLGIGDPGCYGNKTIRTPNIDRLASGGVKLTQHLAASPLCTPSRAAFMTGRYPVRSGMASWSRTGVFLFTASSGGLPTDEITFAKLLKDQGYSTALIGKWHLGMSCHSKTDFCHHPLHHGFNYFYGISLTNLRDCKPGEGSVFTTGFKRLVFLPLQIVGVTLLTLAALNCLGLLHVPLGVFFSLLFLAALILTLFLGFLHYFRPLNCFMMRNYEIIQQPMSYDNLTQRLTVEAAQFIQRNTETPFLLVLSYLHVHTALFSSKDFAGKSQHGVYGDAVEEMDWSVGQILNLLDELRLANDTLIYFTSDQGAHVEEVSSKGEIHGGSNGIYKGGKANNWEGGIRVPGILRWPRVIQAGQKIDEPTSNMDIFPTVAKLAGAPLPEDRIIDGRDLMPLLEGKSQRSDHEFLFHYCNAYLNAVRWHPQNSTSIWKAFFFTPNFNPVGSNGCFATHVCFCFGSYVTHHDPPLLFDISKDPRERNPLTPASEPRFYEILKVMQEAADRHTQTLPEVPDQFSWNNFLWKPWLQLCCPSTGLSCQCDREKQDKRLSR
To be noted: compared with EMATE; cited from earlier work.

The test system of data set [11] is r^□ cells which have lost their mitochondrial DNA. To be noted: Liu et al., 2001; cited from earlier work.

Structures are written as SMILES. Entries after “also recorded” stand apart in the source; their conditions may differ. Like-named read-outs stand apart in the source and are kept apart here.

Chain of p-glycoprotein (P08183 whole entry): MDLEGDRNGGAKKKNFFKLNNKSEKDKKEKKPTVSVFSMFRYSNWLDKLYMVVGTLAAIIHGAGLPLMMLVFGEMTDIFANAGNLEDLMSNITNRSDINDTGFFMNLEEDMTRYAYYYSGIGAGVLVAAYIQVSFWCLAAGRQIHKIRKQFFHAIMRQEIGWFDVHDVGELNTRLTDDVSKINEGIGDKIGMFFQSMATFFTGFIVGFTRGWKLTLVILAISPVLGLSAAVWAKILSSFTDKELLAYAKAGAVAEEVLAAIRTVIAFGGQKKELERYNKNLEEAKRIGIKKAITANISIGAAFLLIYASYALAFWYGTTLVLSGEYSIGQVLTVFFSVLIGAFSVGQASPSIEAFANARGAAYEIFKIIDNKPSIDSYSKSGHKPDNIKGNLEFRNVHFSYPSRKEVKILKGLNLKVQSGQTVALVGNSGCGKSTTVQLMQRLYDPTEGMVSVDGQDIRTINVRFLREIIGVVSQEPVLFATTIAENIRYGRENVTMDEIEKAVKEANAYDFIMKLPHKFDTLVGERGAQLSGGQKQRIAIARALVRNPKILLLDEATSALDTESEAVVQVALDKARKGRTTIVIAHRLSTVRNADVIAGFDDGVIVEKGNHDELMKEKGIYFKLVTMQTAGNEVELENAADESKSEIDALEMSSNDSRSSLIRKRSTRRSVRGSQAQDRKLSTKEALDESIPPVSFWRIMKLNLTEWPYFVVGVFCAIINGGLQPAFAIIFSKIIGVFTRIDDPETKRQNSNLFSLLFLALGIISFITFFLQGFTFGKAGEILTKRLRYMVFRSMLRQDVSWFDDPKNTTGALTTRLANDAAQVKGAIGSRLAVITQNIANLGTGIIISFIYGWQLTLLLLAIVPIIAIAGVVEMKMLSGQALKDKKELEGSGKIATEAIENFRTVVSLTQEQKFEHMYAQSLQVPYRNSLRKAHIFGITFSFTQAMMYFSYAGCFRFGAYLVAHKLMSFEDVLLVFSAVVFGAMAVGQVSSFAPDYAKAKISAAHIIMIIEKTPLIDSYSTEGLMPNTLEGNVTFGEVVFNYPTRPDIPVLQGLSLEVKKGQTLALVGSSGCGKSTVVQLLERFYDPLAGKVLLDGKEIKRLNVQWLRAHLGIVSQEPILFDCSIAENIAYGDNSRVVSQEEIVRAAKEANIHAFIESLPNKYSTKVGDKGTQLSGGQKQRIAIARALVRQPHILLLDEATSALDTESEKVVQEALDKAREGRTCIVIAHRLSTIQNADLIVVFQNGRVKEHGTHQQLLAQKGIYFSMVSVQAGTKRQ

For the compound `COc1cc2c(cc1OS(N)(=O)=O)CCC1C2CC[C@]2(C)C(OS(N)(=O)=O)CCC12` (stereo partly shown) [STX140, 2-Methoxyestradiol-3,17-O,O-bis-sulfamate], the IC50 in the data set on LNCaP cells [1] (72 h, read-out: IC50, inhibition of proliferation, LNCaP, hypoxic, 72 h) was 0.316 µM; in the data set with LNCaP cells [1] (72 h, read-out: IC50, inhibition of proliferation, LNCaP, normoxic, 72 h), 0.293 µM; in the data set on MCF-7 cells [7], 0.25 µM; in the data set with LNCaP cells [8], 0.26 µM. Further, the inhibition at 0.5 µM in the data set on LNCaP cells [1] (72 h, read-out: inhibition of cell proliferation) turned out to be 65%; with MCF-7 cells [2] (read-out: inhibition of cell proliferation, MCF-7, STX140 0.5 μM, hypoxia, 72 h, vs normoxic untreated controls) it was 48%; in the data set with MCF-7 cells [2] (read-out: inhibition of cell proliferation, MCF-7, STX140 0.5 μM, normoxia, 72 h, vs normoxic untreated controls), 45%. Also, the ATP levels entry with LNCaP cells [3] and in the data set with MCF-7 cells [4] was “drops significantly” in each case. Besides, the cell morphology result in the data set with LNCaP cells [5] and in the data set on MCF-7 cells [6] was “shrivelled appearance” each time. In addition, the “growth of MCF-7 tumours” value in the data set with MCF-7 tumours (5 mg/kg) is recorded as “significantly inhibited”. The “von Willebrand's factor staining for endothelial cells (blood vessels)” value in the data set on von Willebrand's factor (5 mg/kg) was “decrease in blood vessels; also recorded: significant reduction”. For the same compound, the “potency as inhibitor of breast cancer cells compared to 2-MeOE2” value in the data set on breast cancer cells is on record as 6 times. In addition, in the data set on HUVEC cells, the “inhibition of proliferation of HUVEC cells compared to 2-MeOE2” value is on record as 60 fold. Besides, in the data set on vessel formation, the “activity as inhibitor of vessel formation compared to 2-MeOE2” value is given as 10-13 times. Also, the substrate for p-glycoprotein entry at p-glycoprotein is “not a substrate for p-glycoprotein”. In addition, the oral bioavailability result in data set [9] (literature (Ireson 2004)) was “orally bioavailable”.
Regarding `COc1cc2c(cc1OS(N)(=O)=O)CC[C@@H]1[C@@H]2CC[C@]2(C)C(=O)CC[C@@H]12` [2-methoxyoestrone-3-O-sulphamate], the oestrogenicity entry in data set [10] (rat, in vivo) is on record as “devoid of oestrogenicity”. Besides, on steroid sulphatase, the “potency as steroid sulphatase inhibitor” value is listed as “equipotent with EMATE”.
As for `O=CC[C@@H](O)[C@H](O)[C@H](O)CO` [2DG, 2-deoxy-D-glucose], the inhibition at 8000 µM with LNCaP cells [1] (72 h, hypoxic, 72 h) is 75%; in the data set on LNCaP cells [1] (72 h, normoxic, 72 h), 50%; in the data set with MCF-7 cells [2] (hypoxic), 70%; with MCF-7 cells [2] (normoxic), 50%. Further, the IC50 in the data set with LNCaP cells [1] (120 h, 5 day period, normoxic conditions, read-out: IC50, inhibition of proliferation) was 6700 µM; with MCF-7 cells [2] (MCF7, 120 h, MCF-7, 5 day period, normoxic conditions, read-out: IC50, inhibition of proliferation), 8100 µM. The “ATP per living cell” value in the data set with LNCaP cells [3] (vs untreated controls) was “significantly decreases ATP”; in the data set with MCF-7 cells [4] (MCF-7, 2DG 8 mM, 72 h, vs untreated controls), “significantly decreases ATP”. Moreover, the ATP levels entry in the data set with LNCaP cells [3] and in the data set on MCF-7 cells [4] was “decreases ATP” each time. The cell morphology entry with LNCaP cells [5] and in the data set on MCF-7 cells [6] was “cells appear to swell up” in each case. For the same compound, the “growth of MCF-7 tumours” value in the data set on MCF-7 tumours is given as “did not significantly inhibit tumour growth”. Besides, the “von Willebrand's factor staining for endothelial cells (blood vessels)” value in the data set on von Willebrand's factor is recorded as “no significant effect”. The “sensitivity of cells lacking mitochondrial DNA relative to wt cells” value in data set [11] is on record as 10 times.
For the compound `C[C@]12CC[C@@H]3c4ccc(OS(N)(=O)=O)cc4CC[C@H]3[C@@H]1CCC2=O` [EMATE, oestrone-3-O-sulphamate], the “oral uterotrophic activity relative to estradiol” value in [10] (rats, oral) was 100 times.
`COc1cc2c(cc1O)CC[C@@H]1[C@@H]2CC[C@]2(C)[C@@H](O)CC[C@@H]12` [2-MeOE2, 2-methoxyoestradiol, reference compound]: the oral bioavailability entry in [9] (in vivo, po) is recorded as “very poor oral bioavailability”.
